Values of other authors as cited in patent publication US9629875B2, “Clostridium difficile sporicidal compositions” (Microdermis Corporation, priority 2014, dated 2017).

System: Bacillus subtilis
Conditions: 0.1% L-alanine in the absence of sporicidal agents, after 4 hours

C[C@H](N)C(=O)O [L-alanine]
colony-forming unit (CFU) relative count: 116%
